Experimental data: patent US12168654B2, “Pyrimidine derivative containing one deuterium atom and preparation process and use thereof” (Guangdong Lewwin Pharmaceutical Research Institute Co., Ltd., priority 2018, dated 2024)
Where two headings read alike, the source gives them in different places.

Legend:
[1] = test system: human highly metastatic hepatoma cells MHCC-97H; experiment: MTT anti-tumor cell proliferation test; format: cell-based; conditions: for IC50: Homo sapiens, MHCC97H, MTT
Description: The novel pyrimidine derivatives of the invention were tested on their anti-tumor activities. Human highly metastatic hepatoma cells MHCC-97H were employed in the MTT process to evaluate the anti-tumor cell proliferation activities. The specific operation steps were as below: tumor cells were inoculated in a 96-well plate by a certain number of cells, at a cell density of 5×10^3-10×10^3/well. They were incubated in an incubator at 37° C. and a carbon dioxide concentration of 5% overnight, into which was then added the compound samples to be tested. After incubation for 72 hours, MTT was added to keep on for 4 hours, and dissolved with the addition of DMSO with shaking, and then detected with a microplate reader (570 nm).
(1) The anti-tumor cell activities of (R)-1D228 are tested. With Tepotinib and (R)-4D288 as the control, human highly metastatic hepatoma cell MHCC-97Hwas selected to evaluate the antitumor cell proliferative activities through the MTT process. The specific operation steps were as below: the tumor cells were inoculated in a 96-well culture plate following a certain number of cells, the cell density was 5×103-10×10^3/well. After cultivation in an incubator at 37° C. and at a CO2 concentration of 5% overnight, the compound samples to test were added. After cultivation for 72 hours, MTT was added to continue the cultivation for 4 hours. DMSO was then added to dissolve with stirring, and detected with a microplate reader (570 nm).

tumor in naked mice = experiment: Anti-tumor test in naked mice; format: in vivo; conditions: once a day for 2 weeks
in vitro = conditions: for half-life: microsomes
Description: Firstly, a SD rat (200-300 g) was fasted for 12 hours, and then infused rapidly with normal saline. Liver was taken out from the rat, from which liver microsomes were extracted at 0-4° C., ready for use after calibrating the concentration of liver microsomes. At 37° C., liver microsomes were incubated in combination with a certain concentration of compounds and auxiliary reagents for a period of time. The reaction was then quenched with acetonitrile.

[2] = Pharmacokinetic properties in mice (IV and PO); conditions: in vivo; for AUC(0-inf) / clearance / half-life / bioavailability: Sprague-Dawley (SD); for Vd / Cmax / Tmax: Sprague-Dawley
[3] = Body weights of animals during administration; format: in vivo, naked mice; conditions: 8 mg/kg, in g (unit assumed)
Excerpt: The body weights of animals in each group during administration are shown in FIG. 9 and Table 7, showing that there were no significant changes in the body weights of mice and there were not abnormal behaviors of mice during administration.

[4] = incubation 72 hours, Table 1, read-out: Human highly metastatic hepatoma cell MHCC-97H (μM), median inhibitory concentration IC50
[5] = cultivation 72 hours, Table 4, read-out: Human highly metastatic hepatoma cell MHCC-97H (μM), inhibitory activity

For `CC(c1cccc(-c2ncc(OCC3CCN(C)CC3)cn2)c1)n1nc(-c2cccc(C#N)c2)ccc1=O` (racemic) [(±)-5b], the IC50 [1, 4] was 0.0353 µM.

With `[2H][C@@](C)(c1cccc(-c2ncc(OCC3CCN(C)CC3)cn2)c1)n1nc(-c2cccc(C#N)c2)ccc1=O` [(R)-1D228] the “Relative tumor proliferation rate T/C (%)” value (tumor in naked mice; 4 mg/kg intragastric) was 1.78%, the “Tumor inhibition rate (%)” value (tumor in naked mice; 4 mg/kg intragastric) was 98.3% and the Tumor weights (tumor in naked mice; 4 mg/kg intragastric) was 0.011 ± 0.006. For the same compound, the “Relative tumor proliferation rate T/C (%)” value (tumor in naked mice; 8 mg/kg intragastric) was 1.17%, the “Tumor inhibition rate (%)” value (tumor in naked mice; 8 mg/kg intragastric) was 98.6% and the Tumor weights (tumor in naked mice; 8 mg/kg intragastric) was 0.009 ± 0.007.

In the case of `C[C@H](c1cccc(-c2ncc(OCC3CCN(C)CC3)cn2)c1)n1nc(-c2cccc(C#N)c2)ccc1=O` [(R)-5b], the IC50 [1, 4] was 0.0037 µM, the “activity for inhibiting tumor cells, times that of (S)-5b” value ([1]; MHCC-97H, relative to (S)-5b) was 31.9 times and the “activity for inhibiting tumor cells, times that of (±)-5b” value ([1]; MHCC-97H, relative to (±)-5b) was 9.5 times. The K (in vitro; SD, rat) was 0.0259 min⁻¹, the half-life (in vitro; SD, rat) was 0.447 h and the AUC(0-inf) ([2]; iv, 2 mg/kg) was 2140 ng·h/mL. It also gave a clearance ([2]; iv, 2 mg/kg) of 15.5 mL/min/kg, a half-life ([2]; iv, 2 mg/kg) of 4.23 h and an AUC(0-inf) ([2]; po, 5 mg/kg) of 4580 ng·h/mL. For the same compound, the bioavailability ([2]; po, 5 mg/kg) was 86%, the Vd ([2]; iv, 2 mg/kg) was 5.69 L/kg and the Cmax ([2]; po, 5 mg/kg) was 495 ng/mL. For the same compound, the Tmax ([2]; po, 5 mg/kg) was 2 h.

For `[2H]C([2H])([2H])[C@]([2H])(c1cccc(-c2ncc(OCC3CCN(C)CC3)cn2)c1)n1nc(-c2cccc(C#N)c2)ccc1=O` [(R)-14], the K (in vitro; SD, rat) was 0.0198 min⁻¹, the half-life (in vitro; SD, rat) was 0.583 h and the AUC(0-inf) ([2]; iv, 2 mg/kg) was 2440 ng·h/mL. For the same compound, the clearance ([2]; iv, 2 mg/kg) was 13.7 mL/min/kg, the half-life ([2]; iv, 2 mg/kg) was 4.48 h and the AUC(0-inf) ([2]; po, 5 mg/kg) was 6310 ng·h/mL. The bioavailability ([2]; po, 5 mg/kg) was 104%, the Vd ([2]; iv, 2 mg/kg) was 5.29 L/kg and the Cmax ([2]; po, 5 mg/kg) was 614 ng/mL. The Tmax ([2]; po, 5 mg/kg) was 4 h, the “Relative tumor proliferation rate T/C (%)” value (tumor in naked mice; 4 mg/kg intragastric) was 2.28% and the “Tumor inhibition rate (%)” value (tumor in naked mice; 4 mg/kg intragastric) was 98.0%. The Tumor weights (tumor in naked mice; 4 mg/kg intragastric) was 0.013 ± 0.015, the “Relative tumor proliferation rate T/C (%)” value (tumor in naked mice; 8 mg/kg intragastric) was 1.59% and the “Tumor inhibition rate (%)” value (tumor in naked mice; 8 mg/kg intragastric) was 98.2%. It also gave a Tumor weights (tumor in naked mice; 8 mg/kg intragastric) of 0.012 ± 0.006.

In the case of `C[C@@H](c1cccc(-c2ncc(OCC3CCN(C)CC3)cn2)c1)n1nc(-c2cccc(C#N)c2)ccc1=O` [(S)-5b], the IC50 [1, 4] was 0.118 µM.

In the case of `CC(c1cccc(-c2ncc(OCCCN(C)C)cn2)c1)n1nc(-c2cccc(C#N)c2)ccc1=O` (centres unmarked) [Compound 1], the IC50 [1, 4] was 0.0476 µM.

Work on `[2H][C@@](C)(c1cccc(-c2ncc(OCC3CCN(C)CC3)cn2)c1)n1nc(-c2cccc(C#N)c2)ccc1=O` [Compound 1] yielded an IC50 [1, 5] of 0.0033 µM.

In the case of `C[C@H](c1cccc(-c2ncc(OCCCN(C)C)cn2)c1)n1nc(-c2cccc(C#N)c2)ccc1=O` [Compound 2], the IC50 [1, 4] was 0.014 µM.

Compound `[2H]C([2H])([2H])[C@]([2H])(c1cccc(-c2ncc(OCC3CCN(C)CC3)cn2)c1)n1nc(-c2cccc(C#N)c2)ccc1=O` [Compound 2] has an IC50 [1, 5] of 0.0037 µM.

Work on `CN1CCC(COc2cnc(-c3cccc(Cn4nc(-c5cccc(C#N)c5)ccc4=O)c3)nc2)CC1` [Compound 3] yielded an IC50 [1, 5] of 0.0134 µM.

For `C[C@@H](c1cccc(-c2ncc(OCCCN(C)C)cn2)c1)n1nc(-c2cccc(C#N)c2)ccc1=O` [Compound 3], the IC50 [1, 4] was 1.04 µM.

`CC(c1cccc(-c2ncc(OCC3CCN(C)CC3)cn2)c1)n1nc(-c2cccc(C#N)c2)ccc1=O` (centres unmarked) [Compound 4] showed an IC50 [1, 4] of 0.0353 µM.

Work on `CC(c1cccc(-c2ncc(SCCCN(C)C)cn2)c1)n1nc(-c2cccc(C#N)c2)ccc1=O` (centres unmarked) [Compound 7] yielded an IC50 [1, 4] of 0.0272 µM.

With `C[C@H](c1cccc(-c2ncc(SCCCN(C)C)cn2)c1)n1nc(-c2cccc(C#N)c2)ccc1=O` [Compound 8] the IC50 [1, 4] was 0.0139 µM.

For `C[C@@H](c1cccc(-c2ncc(SCCCN(C)C)cn2)c1)n1nc(-c2cccc(C#N)c2)ccc1=O` [Compound 9], the IC50 [1, 4] was 0.189 µM.

Compound `CC(c1cccc(-c2ncc([Se]CCCN(C)C)cn2)c1)n1nc(-c2cccc(C#N)c2)ccc1=O` (centres unmarked) [Compound 10] has an IC50 [1, 4] of 0.027 µM.

`C[C@H](c1cccc(-c2ncc([Se]CCCN(C)C)cn2)c1)n1nc(-c2cccc(C#N)c2)ccc1=O` [Compound 11] showed an IC50 [1, 4] of 0.0117 µM.

`C[C@@H](c1cccc(-c2ncc([Se]CCCN(C)C)cn2)c1)n1nc(-c2cccc(C#N)c2)ccc1=O` [Compound 12] showed an IC50 [1, 4] of 0.415 µM.

`[2H]C([2H])([2H])[C@H](c1cccc(-c2ncc(OCC3CCN(C)CC3)cn2)c1)n1nc(-c2cccc(C#N)c2)ccc1=O` [Compound 13] gave an IC50 [1, 4] of 0.0035 µM.

In the case of `[2H]C([2H])([2H])[C@]([2H])(c1cccc(-c2ncc(OCC3CCN(C)CC3)cn2)c1)n1nc(-c2cccc(C#N)c2)ccc1=O` [Compound 14], the IC50 [1, 4] was 0.0037 µM.

With `[2H]C([2H])([2H])[C@@]([2H])(c1cccc(-c2ncc(OCC3CCN(C)CC3)cn2)c1)n1nc(-c2cccc(C#N)c2)ccc1=O` [Compound 15] the IC50 [1, 4] was 1.12 µM.

Compound `CN1CCC(COc2cnc(-c3cccc(Cn4nc(-c5cccc(C#N)c5)ccc4=O)c3)nc2)CC1` [Compound 16] has an IC50 [1, 4] of 0.0134 µM.

`CN1CCC(COc2cnc(-c3cccc(Cn4nc(-c5cccc(C#N)c5)ccc4=O)c3)nc2)CC1` [Tepotinib, reference compound] showed a half-life (in vitro; SD, rat) of 0.345 h, a K (in vitro; rat liver microsomes, 37° C.) of 0.0134 min⁻¹ and an AUC(0-inf) ([2]; mouse, IV 2 mg/kg, read-out: AUC0-∞) of 563 ng·h/mL. The clearance ([2]; mouse, IV 2 mg/kg, read-out: CL (converted)) was 59.2 mL/min/kg, the half-life ([2]; mouse, IV 2 mg/kg, read-out: T1/2 (converted)) was 1.79 h and the bioavailability ([2]; mouse, PO 5 mg/kg vs IV 2 mg/kg, read-out: F % (bioavailability)) was 67.8%. For the same compound, the AUC(0-inf) ([2]; mouse, PO 5 mg/kg, read-out: AUC0-∞) was 982 ng·h/mL, the Vd ([2]; mouse, IV 2 mg/kg, read-out: Vz) was 9.18 L/kg and the Cmax ([2]; mouse, PO 5 mg/kg, read-out: Cmax) was 211 ng/mL. For the same compound, the Tmax ([2]; mouse, PO 5 mg/kg, read-out: Tmax) was 1 h, the “Relative tumor proliferation rate T/C (%)” value (tumor in naked mice; 8 mg/kg intragastric) was 4.9% and the “Tumor inhibition rate (%)” value (tumor in naked mice; 8 mg/kg intragastric) was 93.8%. For the same compound, the Tumor weights (tumor in naked mice; 8 mg/kg intragastric) was 0.041 ± 0.021, the “body weights D 0” value ([3]; D 0) was 24.9 ± 1.0 and the “body weights D 3” value ([3]; D 3) was 25.1 ± 1.1. For the same compound, the “body weights D 6” value ([3]; D 6) was 25.3 ± 1.0, the “body weights D 9” value ([3]; D 9) was 25.2 ± 1.1 and the “body weights D 12” value ([3]; D 12) was 25.3 ± 1.0. The “body weights D 14” value ([3]; D 14) was 25.1 ± 1.0.

For `C[C@]12CC[C@H]3[C@@H](CCC4=CC(=O)CC[C@@]43C)[C@@H]1CC[C@@H]2O` [testosterone, reference compound], the “T1/2 (metabolic half-life in liver microsomes)” value (in vitro; rat liver microsomes, 37° C.) was 2.3 min.
